In brackets after ≈: the same amount, converted by molar mass. Several values for one entry are separate records, joined by “and”; a condition that tells them apart may be missing. Equal entries are not always repeated. Entries after “also recorded” stand apart in the source; their conditions may differ. Where two headings read alike, the source gives them in different places.
Key:
[1] = test system: lymphoid leukemia L1210; experiment: Intracerebral (IC) lymphoid leukemia L1210 test; type: in vivo, murine; settings: for ILS (increase in life span): Table III
From the text: (§1) ^b Ic tumor implantation, ip QD1-9 treatment schedule.
(§2) The L1210, P388 and B16 test systems described in Table II utilize intraperitoneal (IP) tumor implantation and IP drug treatment while the Lewis lung system employs subcutaneous tumor implantation and IP treatment. All three CNS tumor models (Table III) use intracerebral (IC) tumor implantation and IP treatment.
Consistent with NCI antitumor test protocols, intraperitoneal (IP) administration of the drug was employed with all five tumor systems investigated. Tumor implantation was IP in the systems designated IP leukemia L1210 and P388 as well as B16 melanoma. Intracerebral (IC) tumor implantation was utilized in the IC L1210 and ependymoblastoma tumor systems.

[2] = test system: Lewis lung carcinoma; experiment: Lewis lung carcinoma, subcutaneous tumor implantation; type: in vivo, murine
From the text: ^c Subcutaneous tumor implantation, ip QD5-15 treatment schedule.
(§3) The L1210, P388 and B16 test systems described in Table II utilize intraperitoneal (IP) tumor implantation and IP drug treatment while the Lewis lung system employs subcutaneous tumor implantation and IP treatment.

[3] = test system: IP ascites tumor systems (leukemia L1210 and P388); experiment: IP ascites tumor systems (leukemia L1210 and P388); type: in vivo, murine
From the text: (§4) The criterion for minimum activity, %ILS, is defined here as follows: Intraperitoneal and intracerebral leukemia L1210 and intraperitoneal leukemia P388, 25%; intraperitoneal B16 melanoma and intracerebral ependymoblastoma, 40%. Consistent with NCI antitumor test protocols, intraperitoneal (IP) administration of the drug was employed with all five tumor systems investigated. Tumor implantation was IP in the systems designated IP leukemia L1210 and P388 as well as B16 melanoma. Intracerebral (IC) tumor implantation was utilized in the IC L1210 and ependymoblastoma tumor systems.

[4] = test system: lymphoid leukemia L1210; experiment: Intraperitoneal (IP) lymphoid leukemia L1210 transplanted mouse tumor test; type: in vivo, murine; settings: for ILS (increase in life span) / T - C (average weight change of test group minus control): Table II; for T - C (average weight change of test group minus control): day 5
From the text: ^(a) Day 1-9 treatment schedule (9 injections)
^(b) Day 1,5,9 treatment schedule (3 injections)
^(c) Day 1 only treatment schedule (1 injection)
^(f) Percentage increase in life span of treated animals [(treated
survival .div. control survival) × 100%] - 100%

[5] = test system: P388 lymphocytic leukemia; experiment: Intracerebral (IC) lymphocytic leukemia P388 test; type: in vivo, murine; settings: for ILS (increase in life span): Table III
From the text: as §1
Central nervous system antitumor activity is given in Table III for the intracerebrally implanted L1210, P388, and ependymoblastoma tumor systems.
All three CNS tumor models (Table III) use intracerebral (IC) tumor implantation and IP treatment.

[6] = Octanol/H2O partition coefficient (log P); type: physicochemical; settings: partition coefficient measured
From the text: ^(b) Octanol/H2 O values determined by C. Hansch and M. Yamakawa

[7] = Room temperature water solubility; type: physicochemical
Outline: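 Water added incrementally by pipet, with shaking, to a weighed amount of compound at room temperature until dissolved; values are approximate.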

[8] = test system: transplanted mouse tumor test systems; experiment: Transplanted mouse tumor test systems (overall statement); type: in vivo, murine
From the text: The criterion for minimum activity is defined here as follows: intraperitoneal and intracerebral L1210 leukemia, 25%; intraperitoneal and intracerebral P388 leukemia, 25%; B16 melanoma, 40%; Lewis lung carcinoma, 25%; and intracerebral ependymoblastoma, 40%.
as §2, §4

[9] = test system: ependymoblastoma; experiment: Intracerebral (IC) ependymoblastoma (EM) brain tumor test; type: in vivo, murine; settings: for ILS (increase in life span) / T - C (average weight change of test group minus control) / Cures (animals alive per six on day of termination): Table III; for ILS (increase in life span) / T - C (average weight change of test group minus control): ic ependymoblastoma; for T - C (average weight change of test group minus control): day 5
[10] = test system: B16 melanocarcinoma; experiment: Intraperitoneal B16 melanocarcinoma transplanted mouse tumor test; type: in vivo, murine; settings: for ILS (increase in life span): Table II
From the text: ^b Ip tumor implantation, ip QD1-9 treatment schedule.
as §3
Aqueous saline solution (0.9%) was used as the drug vehicle. Normally, five doses were employed per experiment with the top dose chosen to produce toxicity. The lower doses were 50% of each preceeding dose.
Consistent with NCI antitumor test protocols, intraperitoneal (IP) administration of the drug was employed with all five tumor systems investigated. Tumor implantation was IP in the systems designated IP leukemia L1210 and P388 as well as B16 melanoma.

[11] = test system: P388 lymphocytic leukemia; experiment: Intraperitoneal (IP) lymphocytic leukemia P388 transplanted mouse tumor test; type: in vivo, murine
[12] = IP L1210, ip QD1-9, 0.88 mg/kg/injection
[13] = IP L1210, ip QD1-9, 1.30 mg/kg/injection
[14] = IP L1210, ip QD1-9, 6.25 mg/kg/injection
[15] = ip QD1-5, 1.00 mg/kg/injection, expt 133 (day 99)
[16] = ip QD1-5, 1.00 mg/kg/injection, expts 136 and 144 (day 60)
[17] = ip QD1-5, 2.00 mg/kg/injection, expt 133 (day 99)
[18] = ip QD1-5, 2.00 mg/kg/injection, expts 136 and 144 (day 60)
[19] = ip QD1-5, 4.00 mg/kg/injection, expt 136 (day 60)

With `CCOC(=O)NC1=C(N2CC2)C(=O)C(NC(=O)OCC)=C(N2CC2)C1=O` [Compound 9, 2,5-Diaziridinyl-3,6-bis (carboethoxyamino)-1,4-benzoquinone] the “OD (optimum dose)” value ([1]; IC L1210) was 3.12 mg/kg, the “antitumor activity” value ([1]; IC L1210) was “substantial” and the ILS ([1]; IC L1210, OD 3.12 mg/kg) was 79% and 84%. The “ILS (increase in life span)” value ([1]; ic L1210, ip QD1-9, 1.56 mg/kg/injection) was 51% and 46%, the “ILS (increase in life span)” value ([1]; ic L1210, ip QD1-9, 3.12 mg/kg/injection) was 84% and 79% and the “ILS (increase in life span)” value ([1]; ic L1210, ip QD1-9, 6.25 mg/kg/injection) was 10% and 3%. For the same molecule, the “OD (optimum dose)” value ([1]; Table IV, (IC) L1210, QD1-9) was 3 mg/kg/injection and 5 mg/kg/injection, the “% ILS” value ([1]; Table IV, (IC) L1210, QD1-9, at OD) was 84% and 79% and 63% and 58% and the “ILS (%) IC L1210” value ([1]; Table XI, outstanding activity) was 84%. For the same molecule, the “antitumor activity” value ([2]; Lewis lung) was “Marginal activity”, the “ILS (increase in life span)” value ([2]; Table II, sc Lewis lung, ip QD5-15, 2.00 mg/kg/injection) was 38% and 34% and the “antitumor activity” value [3] was “does not give multiple cures”. For the same molecule, the “activity (%ILS)” value ([4]; IP L1210, Q4D schedule) was 54%, the optimum dose ([4]; IP L1210, Q4D schedule) was 6.25 mg/kg and the “optimum dose (OD)” value ([4]; IP L1210, QD1-9) was 2 to 3 mg/kg. For the same molecule, the “therapeutic ratio (TR, highest active dose divided by lowest active dose)” value ([4]; IP L1210, QD1-9) was “approximately 4”, the “increase in life span (ILS)” value ([4]; L1210, Q4D and QD1-9 schedules) was > 25% and the “antitumor activity” value ([4]; L1210 system, Q4D and QD1-9 schedules) was “very active”. The “ILS (increase in life span)” value [4, 12] was 32%, the “T - C (average weight change of test group minus control)” value [4, 12] was -1.4 grams and the “ILS (increase in life span)” value [4, 13] was 60%. The “T - C (average weight change of test group minus control)” value [4, 13] was -2.3 grams, the “ILS (increase in life span)” value ([4]; IP L1210, ip QD1-9, 2.00 mg/kg/injection) was 101% and 125% and the “ILS (increase in life span)” value [4, 14] was 27%. The “T - C (average weight change of test group minus control)” value [4, 14] was -4.1 grams, the “T - C (average weight change of test group minus control)” value ([4]; IP L1210, ip QD1-9, 12.50 mg/kg/injection) was -5.0 grams and the “OD (optimum dose)” value ([4]; Table IV, (IP) L1210, QD1-9) was 3 mg/kg/injection and 2 mg/kg/injection and 4 mg/kg/injection. The “% ILS” value ([4]; Table IV, (IP) L1210, QD1-9, at OD) was 169% and 113% and 101% and 100%, the “ILS (%) IP L1210” value ([4]; Table XI, outstanding activity) was 169% and the ILS ([4]; standard IP L1210 test, QD1-9) was > 100%. For the same molecule, the “antitumor activity” value ([5]; IC P388) was “substantial”, the “ILS (increase in life span)” value ([5]; ic P388, ip QD1-9, 0.39 mg/kg/injection) was 7% and 2% and the “ILS (increase in life span)” value ([5]; ic P388, ip QD1-9, 0.78 mg/kg/injection) was 27% and 25%. The “ILS (increase in life span)” value ([5]; ic P388, ip QD1-9, 1.56 mg/kg/injection) was 37% and 51%, the “ILS (increase in life span)” value ([5]; ic P388, ip QD1-9, 3.12 mg/kg/injection) was 39% and 31% and the “OD (optimum dose)” value ([5]; Table IV, (IC) P388, QD1-9) was 1.5 mg/kg/injection and 3 mg/kg/injection. For the same molecule, the “% ILS” value ([5]; Table IV, (IC) P388, QD1-9, at OD) was 51% and 39%, the “log P” value [6] was 0.05 and the “solubility” value [7] was “appeared to be adequate”. For the same molecule, the solubility ([7]; water, approximate, read-out: aqueous solubility) was ~500 µg/mL (≈ 1370 µM), the “toxicity” value [8] was “reasonably toxic material” and the “antitumor activity” value ([8]; IC and other transplanted mouse tumor systems) was “very substantial activity; also recorded: Antitumor activity was observed; also recorded: intracerebral (IC) as well as IP antitumor activity”. The “TR (therapeutic ratio)” value ([8]; last three systems (P388, B16, Lewis lung)) was 3-4, the “antitumor activity” value ([9]; IC ependymoblastoma (EM)) was “curative; also recorded: very active” and the “ILS (increase in life span)” value ([9]; ip QD1-5, 0.25 mg/kg/injection) was 30%. The “T - C (average weight change of test group minus control)” value ([9]; ip QD1-5, 0.25 mg/kg/injection) was -1.5 grams, the “ILS (increase in life span)” value ([9]; ip QD1-5, 0.50 mg/kg/injection) was 62% and the “T - C (average weight change of test group minus control)” value ([9]; ip QD1-5, 0.50 mg/kg/injection) was -1.8 grams. The “ILS (increase in life span)” value [9, 15] was 348%, the “ILS (increase in life span)” value [9, 16] was 126% and 171% and the “ILS (increase in life span)” value [9, 17] was 349%. For the same molecule, the “ILS (increase in life span)” value [9, 18] was 277% and 171%, the “ILS (increase in life span)” value [9, 19] was 276% and the “T - C (average weight change of test group minus control)” value ([9]; ip QD1-5, 8.00 mg/kg/injection) was -5.0 grams. For the same molecule, the “Cures (animals alive per six on day of termination)” value [9, 15] was 3/6, the “Cures (animals alive per six on day of termination)” value [9, 16] was 1/6 and 5/6 and the “Cures (animals alive per six on day of termination)” value [9, 17] was 4/6. For the same molecule, the “Cures (animals alive per six on day of termination)” value [9, 18] was 5/6, the “Cures (animals alive per six on day of termination)” value [9, 19] was 4/6 and the “OD (optimum dose)” value ([9]; Table IV, (IC) ependymoblastoma, QD1-5) was 2 mg/kg/injection and 1 mg/kg/injection. For the same molecule, the “% ILS” value ([9]; Table IV, (IC) ependymoblastoma, QD1-5, at OD) was > 277% and > 202% and > 172% and > 171%, the “survivors of 6 test mice on experiment termination day” value ([9]; Table IV, (IC) ependymoblastoma, QD1-5, at OD, day 60) was 5 and 4 and 6 and the “survivors (number in parentheses) EM” value ([9]; Table XI, per 6 test animals, day 60) was 5. For the same molecule, the “TR (therapeutic ratio)” value ([9]; ependymoblastoma) was 4-8, the optimum dose ([9]; ependymoblastoma) was 1 to 2 mg/kg and the “survival” value ([9]; experiment 133, 2.0 mg/kg, day 99) was “A majority of the test animals were alive on day 99”. For the same molecule, the “OD (optimum dose)” value ([10]; B16) was 3.12 mg/kg, the “antitumor activity” value ([10]; B16 melanoma) was “very active” and the “B16 melanoma activity (ILS)” value ([10]; OD of 3.12 mg/kg) was ≤ 70%. For the same molecule, the “ILS (increase in life span)” value ([10]; B16, ip QD1-9, 1.56 mg/kg/injection) was 38% and 44% and 58%, the “ILS (increase in life span)” value ([10]; B16, ip QD1-9, 3.12 mg/kg/injection) was 58% and 43% and 70% and the “OD (optimum dose)” value ([10]; Table IV, (IP) B16, QD1-9) was 3 mg/kg/injection. For the same molecule, the “% ILS” value ([10]; Table IV, (IP) B16, QD1-9, at OD) was 94% and 70% and 62%, the “ILS (%) B16” value ([10]; Table XI, outstanding activity) was 70% and the “OD (optimum dose)” value ([11]; IP P388) was 1 to 2 mg/kg. For the same molecule, the “antitumor activity” value ([11]; IP P388) was “very active”, the “ILS (increase in life span)” value ([11]; Table II, IP P388, ip QD1-9, 0.78 mg/kg/injection) was 111% and 99% and 112% and the “ILS (increase in life span)” value ([11]; Table II, IP P388, ip QD1-9, 1.56 mg/kg/injection) was 138% and 135% and 112%. For the same molecule, the “T - C (average weight change of test group minus control)” value ([11]; Table II, IP P388, ip QD1-9, 6.25 mg/kg/injection, day 5) was -6.1 grams, the “OD (optimum dose)” value ([11]; Table IV, (IP) P388, QD1-9) was 1.6 mg/kg/injection and 0.8 mg/kg/injection and the “% ILS” value ([11]; Table IV, (IP) P388, QD1-9, at OD) was 138% and 135% and 112%. The “survivors of 6 test mice on experiment termination day” value ([11]; Table IV, (IP) P388, QD1-9, at OD, day 30) was 1, the “ILS (%) P388” value ([11]; Table XI, outstanding activity) was 138% and the “survivors (number in parentheses) P388” value ([11]; Table XI, per 6 test animals, day 30) was 1.
